Reference: US11320350B2, “Method for agglutinating erythrocytes, method for separating erythrocytes, and hemagglutination reagent” (DENKA SEIKEN CO., LTD., priority 2016, dated 2022)

Test system: erythrocytes in a whole blood sample
Experiment: hemagglutination evaluation test: whole blood sample added to hemagglutination reagent, rate of agglutination of erythrocytes visually evaluated
Type: cell-based
Set-up: key to Rate of agglutination: +++: Erythrocytes were instantaneously agglutinated into a sufficient size and the agglutinated erythrocytes were precipitated.; ++: Erythrocytes started to agglutinate after leaving to stand for a few seconds, and agglutinated erythrocytes were gradually precipitated.; +: Erythrocytes were agglutinated, but the agglutinates were very small and the agglutination was incomplete.; ±: Only very few erythrocytes were agglutinated.; −: Erythrocytes were hemolyzed without being agglutinated
Conditions: citric acid 100 mM in physiologic saline, pH3.0
Protocol: To 71 mL of distilled water, 10 mL of 10 w/v % sodium taurodeoxycholate hydrate (TDOC), 10 mL of 1 M citric acid, and 9 mL of 10 w/v % sodium chloride were added to prepare a solution containing 100 mM citric acid, 1% TDOC, and 0.9% sodium chloride as final concentrations (hemagglutination reagent). A solution was also prepared in the similar manner except that TDOC and/or sodium chloride were not added (hemagglutination reagent), and effects of the presence and absence of the cholic acid-based surfactant and the salt and the pH range on agglutination of erythrocytes were compared.
(§1) After adding 60 μL of a whole blood sample to 400 μL of the hemagglutination reagent, the rate of agglutination of erythrocytes was visually evaluated. The rate of agglutination was evaluated as +++, ++, +, or ± in order of rapidity based on the criteria described below. Hemolysis without agglutination was evaluated as −.
The pH of the hemagglutination reagent was measured using a desktop pH meter (HORIBA) (similarly in the following Examples and Comparative Examples).
Various cholic acid-based surfactants (1% by weight) and citric acid (100 mM) were added to a physiologic saline to prepare hemagglutination reagents (pH3.0) and their abilities to agglutinate erythrocytes were compared.
as §1, with “was” for “was visually”, “−. The following criteria were the same as those in Examples 1 to 4 and Comparative Examples 1-1 to 4-2.” for “−.”
Sodium taurodeoxycholate hydrate (TDOC) and citric acid (100 mM) were added to a physiologic saline to prepare hemagglutination reagents (pH3.0), and their abilities to agglutinate erythrocytes were compared in the concentration range of TDOC as shown in the table below.
as §1, with “was” for “was visually”, “criteria” for “criteria described”, “−. The following criteria were the same as those in Examples 1 to 7 and Comparative Examples 1-1 to 4-2.” for “−.”

`C[C@H](CCC(=O)NCCS(=O)(=O)[O-])[C@H]1CC[C@H]2[C@@H]3CC[C@@H]4C[C@H](O)CC[C@]4(C)[C@H]3C[C@H](O)[C@]12C.O.[Na+]` [TDOC, sodium taurodeoxycholate hydrate] was tested, and the Rate of agglutination (Concentration of TDOC 0.1 wt %) was “+++”, the Rate of agglutination (Concentration of TDOC 0.5 wt %) was “+++” and the Rate of agglutination (Concentration of TDOC 1.0 wt %) was “+++”. For the same compound, the Rate of agglutination (Concentration of TDOC 6.0 wt %) was “+++” and the “effect on hemagglutination (compared among cholic acid-based surfactants)” value (surfactant 1% by weight) was “most significant”.
